Our source for the IC50 and CC50 values is ChEMBL document CHEMBL5257051, “Integrasone Derivatives Isolated from Lepteutypa sp. KT4162 and Their Anti-HIV-1 Integrase Activity” (J Nat Prod, 2023).

Where only a bound is given, the exact number is not on record here.

A short description of the first series: Inhibition of HIV-1 Integrase transfected in human HEK293T cells measured after 48 hrs by luminometer analysis. It is filed as cell-based, Human immunodeficiency virus 1.
Conditions: not given
For orientation: IC50 means the concentration that gives 50% inhibition. A higher IC50 goes with weaker potency in that assay. As for `COc1cc2c(cc1Cc1cccc(Cl)c1F)c(=O)c(C(=O)O)cn2[C@H](CO)C(C)C` [ELVITEGRAVIR], half-maximal inhibition (IC50) was put at 3.8 µM.

Another series in a line: Cytotoxicity against human HEK293T cells assessed as cell growth inhibition by MTT assay. Format: toxicity, cell-based, HEK-293T.
Conditions: not given
(Formazan colour is commonly taken as a measure of viable cells.)
In general, CC50 refers to the concentration that lowers cell viability or growth by half. With `COc1cc2c(cc1Cc1cccc(Cl)c1F)c(=O)c(C(=O)O)cn2[C@H](CO)C(C)C` [ELVITEGRAVIR], the CC50 is more than 250 µM.

The nature of another series: Inhibition of HIV-1 Integrase transfected in human HEK293T cells measured after 48 hrs by bright-glo luciferase assay. The note with it: Human immunodeficiency virus 1, HEK-293T. It is filed as cell-based.
Turning to `CCCCCCCCC(=O)Cc1occ2c1[C@@H](O)[C@@H]1O[C@@H]1[C@@H]2O`, the IC50 turned out to be 40 µM.
On the same count and under the same terms, the same measure for `CCCCCCCCC(=O)C[C@H]1OCC2=C1[C@@H](O)[C@@H]1O[C@@H]1[C@@H]2O`: 95 µM.
`CCCCCCCCC(=O)C[C@H]1OC(=O)C2=C1[C@@H](O)[C@@H]1O[C@@H]1[C@@H]2O` had a half-maximal inhibitory concentration (IC50) of 56 µM.
The same measure, in the same setting: the same measure for `CCCCCCCCC(=O)C[C@@H]1OC(=O)C2=C1[C@@H](O)[C@@H]1O[C@@H]1[C@@H]2O`: 2.5 µM; for `O=C(CCCCCCCCO)C[C@H]1OCC2=C1[C@@H](O)[C@@H]1O[C@@H]1[C@@H]2O`: 112 µM.

Another series is described as follows: Cytotoxicity against human HEK293T cells assessed as cell growth inhibition measured for 30 mins by WST assay. It is filed as toxicity, cell-based, HEK-293T.
Conditions: not given
With `CCCCCCCCC(=O)Cc1occ2c1[C@@H](O)[C@@H]1O[C@@H]1[C@@H]2O`, the CC50 at 0.5 h is more than 250 µM.
For `CCCCCCCCC(=O)C[C@H]1OCC2=C1[C@@H](O)[C@@H]1O[C@@H]1[C@@H]2O`, the CC50 at 0.5 h is more than 250 µM.
Still for that read-out and setting: then `CCCCCCCCC(=O)C[C@H]1OC(=O)C2=C1[C@@H](O)[C@@H]1O[C@@H]1[C@@H]2O`, with more than 250 µM; and `CCCCCCCCC(=O)C[C@@H]1OC(=O)C2=C1[C@@H](O)[C@@H]1O[C@@H]1[C@@H]2O`, with more than 250 µM; and `O=C(CCCCCCCCO)C[C@H]1OCC2=C1[C@@H](O)[C@@H]1O[C@@H]1[C@@H]2O`, with more than 250 µM.
